{"source": "patent US20250302974A1", "about": "“LECTIN-DRUG CONJUGATES” (UNICHEM LABORATORIES LIMITED, priority 2021, published 2025)", "test_in_all_cases": "Cytotoxic effect by MTT assay, 48 h", "key": {"AGS Stomach": {"tested_on": "AGS Stomach", "settings": "read-out: IC50 Values; AGS Stomach, after 48 h of treatment", "method": "(§1) Cells were treated with Test Items at various concentrations (0.0001 μM-10 μM) for 48 h. The cells corresponding to Positive Control group were treated with Doxorubicin at a concentration ranging from 0.1 μM-100 μM. The Untreated cells were used as Control. After 48 h of incubation, the effect of Test Items on cytotoxicity of cells was determined by MTT assay, the plates were taken out and 20 μl of 5 mg/m1 of MTT 3-(4,5-dimethythiazol-2-yl)-2,5-diphenyl tetrazolium bromide solution was added to all the wells. Cells were incubated for 3 h at 37° C. The supernatant was aspirated. 150 μl of DMSO was added to each well to dissolve formazan crystals. The absorbance of each well was then read at 540 nm using Synergy HT micro plate reader.\n(§2) The % Cytotoxicity was calculated using the formula:\n(§3) Where, X=Absorbance of cells treated with Test Item; R=Absorbance of Control cells (Untreated cells maintained in growth medium only).\n(§4) Selectivity Index was calculated using the formula:\n(§5) SI=IC50 in Normal cell/IC50 in cancer cell.\n(§6) Activity scores of the Selective Index values were categorized as: • Not selective (SI value ≤1) • Moderately selective (1<SI value <5) • Selective (SI value ≥5)"}, "HT29 Colon": {"tested_on": "HT29 Colon", "settings": "read-out: IC50 Values; HT29 Colon, after 48 h of treatment", "method": "as §1, §2, §3, §4, §5, §6"}, "KB Cervix": {"tested_on": "KB Cervix", "settings": "for Percent cytotoxicity wrt control: KB, 48 h", "method": "as §1, §2, §3, §4, §5, §6"}, "MDA-MB-231 Breast": {"tested_on": "MDA-MB-231 Breast", "settings": "read-out: IC50 Values; MDA-MB-231 Breast, after 48 h of treatment", "method": "as §1, §2, §3, §4, §5, §6"}, "MG-63 Bone": {"tested_on": "MG-63 Bone", "settings": "for Percent cytotoxicity wrt control: 48 h", "method": "as §1, §2, §3, §4, §5, §6"}, "PA-1 Ovary": {"tested_on": "PA-1 Ovary", "settings": "for Percent cytotoxicity wrt control: 48 h", "method": "as §1, §2, §3, §4, §5, §6"}, "PANC-1 Pancreatic": {"tested_on": "PANC-1 Pancreatic", "settings": "for Percent cytotoxicity wrt control: 48 h", "method": "as §1, §2, §3, §4, §5, §6"}, "T24 Bladder": {"tested_on": "T24 Bladder", "settings": "48 h", "method": "as §1, §2, §3, §4, §5, §6"}, "A549 Lungs": {"tested_on": "A549 Lungs", "settings": "for Percent cytotoxicity wrt control: 48 h", "method": "as §1, §2, §3, §4, §5, §6"}, "PBMC Normal": {"tested_on": "PBMC Normal", "settings": "for Percent cytotoxicity wrt control: PBMC, 48 h", "method": "as §1, §2, §3"}}, "note": "Square brackets hold non-standard residues; d marks the D form. Peptide text beside a SMILES is read from it. * marks the point of attachment. Dolaproine = CO[C@@H]([C@@H]1CCCN1)[C@@H](C)C(=O)O; Dil = CC[C@H](C)[C@H](NC)[C@@H](CC(=O)O)OC; X1 = C[C@@H](N*)[C@@H](O)c1ccccc1; NMeV = CN[C@H](C(=O)O)C(C)C"}
{"compound": "CC[C@H](C)[C@@H]([C@@H](CC(=O)N1CCC[C@H]1[C@H](OC)[C@@H](C)C(=O)N[C@H](C)[C@@H](O)c1ccccc1)OC)N(C)C(=O)[C@@H](NC(=O)[C@@H](NC)C(C)C)C(C)C", "note": "[MMAE, monomethyl auristatin E] (H-[NMeV]V[Dil][Dolaproine]-X1)", "values": [{"measurement": "IC50", "setting": "AGS Stomach", "value": 1540, "unit": "nM"}, {"measurement": "IC50", "setting": "HT29 Colon", "value": 50, "unit": "nM"}, {"measurement": "Percent cytotoxicity wrt control", "setting": "KB Cervix; 0.0001 μM", "value": 90.5, "unit": "%"}, {"measurement": "Percent cytotoxicity wrt control", "setting": "KB Cervix; 0.01 μM", "value": 96.1, "unit": "%"}, {"measurement": "Percent cytotoxicity wrt control", "setting": "KB Cervix; 0.1 μM", "value": 96.3, "unit": "%"}, {"measurement": "Percent cytotoxicity wrt control", "setting": "KB Cervix; 1 μM", "value": 96.2, "unit": "%"}, {"measurement": "Percent cytotoxicity wrt control", "setting": "KB Cervix; 10 μM", "value": 96.3, "unit": "%"}, {"measurement": "IC50", "setting": "KB Cervix; read-out: IC50 Values, KB Cervix, after 48 h of treatment", "value": "≤ 0.1", "unit": "nM"}, {"measurement": "IC50", "setting": "MDA-MB-231 Breast", "value": "> 10000", "unit": "nM"}, {"measurement": "Percent cytotoxicity wrt control", "setting": "MG-63 Bone; MG-63, 0.0001 μM", "value": 81.7, "unit": "%"}, {"measurement": "Percent cytotoxicity wrt control", "setting": "MG-63 Bone; MG-63, 0.001 μM", "value": 85.5, "unit": "%"}, {"measurement": "Percent cytotoxicity wrt control", "setting": "MG-63 Bone; MG-63, 0.01 μM", "value": 86.2, "unit": "%"}, {"measurement": "Percent cytotoxicity wrt control", "setting": "MG-63 Bone; MG-63, 0.1 μM", "value": 87.4, "unit": "%"}, {"measurement": "Percent cytotoxicity wrt control", "setting": "MG-63 Bone; MG-63, 1 μM", "value": 85.3, "unit": "%"}, {"measurement": "Percent cytotoxicity wrt control", "setting": "MG-63 Bone; MG-63, 10 μM", "value": 82.3, "unit": "%"}, {"measurement": "IC50", "setting": "MG-63 Bone; read-out: IC50 Values, MG-63 Bone, after 48 h of treatment", "value": "≤ 0.1", "unit": "nM"}, {"measurement": "Percent cytotoxicity wrt control", "setting": "PA-1 Ovary; PA-1, 0.0001 μM", "value": 13.4, "unit": "%"}, {"measurement": "Percent cytotoxicity wrt control", "setting": "PA-1 Ovary; PA-1, 0.001 μM", "value": 57.5, "unit": "%"}, {"measurement": "Percent cytotoxicity wrt control", "setting": "PA-1 Ovary; PA-1, 0.01 μM", "value": 50, "unit": "%"}, {"measurement": "Percent cytotoxicity wrt control", "setting": "PA-1 Ovary; PA-1, 0.1 μM", "value": 57.5, "unit": "%"}, {"measurement": "Percent cytotoxicity wrt control", "setting": "PA-1 Ovary; PA-1, 1 μM", "value": 61.7, "unit": "%"}, {"measurement": "Percent cytotoxicity wrt control", "setting": "PA-1 Ovary; PA-1, 10 μM", "value": 58.3, "unit": "%"}, {"measurement": "IC50", "setting": "PA-1 Ovary; read-out: IC50 Values, PA-1 Ovary, after 48 h of treatment", "value": 30.1, "unit": "nM"}, {"measurement": "Percent cytotoxicity wrt control", "setting": "PANC-1 Pancreatic; PANC-1, 0.0001 μM", "value": 38.1, "unit": "%"}, {"measurement": "Percent cytotoxicity wrt control", "setting": "PANC-1 Pancreatic; PANC-1, 0.001 μM", "value": 41, "unit": "%"}, {"measurement": "Percent cytotoxicity wrt control", "setting": "PANC-1 Pancreatic; PANC-1, 0.01 μM", "value": 64.1, "unit": "%"}, {"measurement": "Percent cytotoxicity wrt control", "setting": "PANC-1 Pancreatic; PANC-1, 0.1 μM", "value": 67.7, "unit": "%"}, {"measurement": "Percent cytotoxicity wrt control", "setting": "PANC-1 Pancreatic; PANC-1, 10 μM", "value": 69.7, "unit": "%"}, {"measurement": "IC50", "setting": "PANC-1 Pancreatic; read-out: IC50 Values, PANC-1 Pancreatic, after 48 h of treatment", "value": 1.5, "unit": "nM"}, {"measurement": "Percent cytotoxicity wrt control", "setting": "T24 Bladder; T24, 0.0001 μM", "value": 51.8, "unit": "%"}, {"measurement": "Percent cytotoxicity wrt control", "setting": "T24 Bladder; T24, 0.001 μM", "value": 51.1, "unit": "%"}, {"measurement": "Percent cytotoxicity wrt control", "setting": "T24 Bladder; T24, 0.1 μM", "value": 44.4, "unit": "%"}, {"measurement": "Percent cytotoxicity wrt control", "setting": "T24 Bladder; T24, 1 μM", "value": 44.4, "unit": "%"}, {"measurement": "Percent cytotoxicity wrt control", "setting": "A549 Lungs; A549, 0.0001 μM", "value": 27.9, "unit": "%"}, {"measurement": "Percent cytotoxicity wrt control", "setting": "A549 Lungs; A549, 0.001 μM", "value": 39.3, "unit": "%"}, {"measurement": "Percent cytotoxicity wrt control", "setting": "A549 Lungs; A549, 0.1 μM", "value": 58.8, "unit": "%"}, {"measurement": "Percent cytotoxicity wrt control", "setting": "A549 Lungs; A549, 1 μM", "value": 83.6, "unit": "%"}, {"measurement": "Percent cytotoxicity wrt control", "setting": "A549 Lungs; A549, 10 μM", "value": 75.8, "unit": "%"}, {"measurement": "IC50", "setting": "A549 Lungs; read-out: IC50 Values, A549 Lungs, after 48 h of treatment", "value": 10, "unit": "nM"}, {"measurement": "Percent cytotoxicity wrt control", "setting": "PBMC Normal; 0.0001 μM", "value": "−2.7", "unit": "%"}, {"measurement": "Percent cytotoxicity wrt control", "setting": "PBMC Normal; 0.001 μM", "value": 29.8, "unit": "%"}, {"measurement": "Percent cytotoxicity wrt control", "setting": "PBMC Normal; 0.01 μM", "value": 34.3, "unit": "%"}, {"measurement": "Percent cytotoxicity wrt control", "setting": "PBMC Normal; 0.1 μM", "value": 34.1, "unit": "%"}, {"measurement": "Percent cytotoxicity wrt control", "setting": "PBMC Normal; 1 μM", "value": 26.6, "unit": "%"}, {"measurement": "Percent cytotoxicity wrt control", "setting": "PBMC Normal; 10 μM", "value": 32.5, "unit": "%"}, {"measurement": "IC50", "setting": "PBMC Normal; read-out: IC50 Values, PBMC Normal, after 48 h of treatment", "value": "> 10000", "unit": "nM"}]}
